pIC50: −log10 of the molar value. Numbered stars: 1 amine (or outer) side, 2 acyl side, 3 side chain; on linkers, the order of the positions; unused ones are H or OH. Square brackets hold non-standard residues; d marks the D form. Peptide text beside a SMILES is read from it. * marks the point of attachment. ξ: configuration not given here. X1 = CCC(=O)C[C@@H](O)C[C@@H](C)C[C@H](N[*:1])C(=O)[*:2]; Alaψ(CH2NMeCH2CH2OH) = C[C@@H](CN(C)CCO)N*; Decanoyl(2R-Me) = CCCCCCCC[C@@H](C)C(=O)*; X2 = CCCCCCC[C@H](O)[C@H](C)C(=O)*; Aib = CC(C)(N)C(=O)O; ξA = CC(N)C(=O)O
Experiments:
Mus musculus [1] = species: Mus musculus; test: Inhibitory activity against the production of interleukin 4 (IL-4); type: functional, organism-based
Mus musculus [2] = species: Mus musculus; test: Inhibitory activity against the proliferation of lymphocytes in mouse allogenic mixed lymphocyte reaction (MLR).; type: functional, organism-based

SMILES: CCCCCCCC[C@@H](C)C(=O)N1CCC[C@H]1C(=O)N[C@@H](C[C@H](C)C[C@H](O)CC(=O)CC)C(=O)N[C@@H](C)C(=O)NC(C)(C)C(=O)NC(C)(C)C(=O)N[C@H](C(=O)N[C@@H](C)C(=O)NC(C)(C)C(=O)NC(C)C(=O)N[C@@H](C)CN(C)CCO)C(C)C (stereo partly drawn) ({Decanoyl(2R-Me)}-P[X1]A[Aib][Aib]VA[Aib][ξA]-{Alaψ(CH2NMeCH2CH2OH)})
- pIC50 (Mus musculus [1]): < 6.00
- pIC50 (Mus musculus [2]): 7.22

SMILES: CCCCCCCC[C@@H](C)C(=O)N1CCC[C@H]1C(=O)N[C@@H](C[C@H](C)C[C@H](O)CC(=O)CC)C(=O)N[C@@H](C)C(=O)NC(C)(C)C(=O)NC(C)(C)C(=O)N[C@H](C(=O)N[C@@H](C)C(=O)NC(C)(C)C(=O)NC(C)(C)C(=O)N[C@@H](C)CN(C)CCO)C(C)C ({Decanoyl(2R-Me)}-P[X1]A[Aib][Aib]VA[Aib][Aib]-{Alaψ(CH2NMeCH2CH2OH)})
- pIC50 (Mus musculus [1]): < 6.00
- pIC50 (Mus musculus [2]): 7.97

SMILES: CCCCCCCC[C@@H](C)C(=O)N1CCC[C@H]1C(=O)N[C@@H](C[C@H](C)C[C@H](O)CC(=O)CC)C(=O)N[C@@H](C)C(=O)NC(C)(C)C(=O)NC(C)(C)C(=O)N[C@H](C(=O)N[C@@H](C)C(=O)NC(C)(C)C(=O)NC(C)C(=O)N[C@@H](C)CN(C)CCO)[C@@H](C)CC (stereo partly drawn) ({Decanoyl(2R-Me)}-P[X1]A[Aib][Aib]IA[Aib][ξA]-{Alaψ(CH2NMeCH2CH2OH)})
- pIC50 (Mus musculus [1]): < 6.00
- pIC50 (Mus musculus [2]): 7.69

SMILES: CCCCCCCC[C@@H](C)C(=O)N1CCC[C@H]1C(=O)N[C@@H](C[C@H](C)C[C@H](O)CC(=O)CC)C(=O)N[C@@H](C)C(=O)NC(C)(C)C(=O)NC(C)(C)C(=O)N[C@H](C(=O)N[C@@H](C)C(=O)NC(C)(C)C(=O)NC(C)(C)C(=O)N[C@@H](C)CN(C)CCO)[C@@H](C)CC ({Decanoyl(2R-Me)}-P[X1]A[Aib][Aib]IA[Aib][Aib]-{Alaψ(CH2NMeCH2CH2OH)})
- pIC50 (Mus musculus [1]): < 6.00
- pIC50 (Mus musculus [2]): 8.28

SMILES: CCCCCCC[C@H](O)[C@H](C)C(=O)N1CCC[C@H]1C(=O)N[C@@H](C[C@H](C)C[C@H](O)CC(=O)CC)C(=O)N[C@@H](C)C(=O)NC(C)(C)C(=O)NC(C)(C)C(=O)N[C@H](C(=O)N[C@@H](C)C(=O)NC(C)(C)C(=O)NC(C)(C)C(=O)N[C@@H](C)CN(C)CCO)[C@@H](C)CC (X2-P[X1]A[Aib][Aib]IA[Aib][Aib]-{Alaψ(CH2NMeCH2CH2OH)})
- pIC50 (Mus musculus [1]): < 6.00
- pIC50 (Mus musculus [2]): 6.53

Source: ChEMBL document CHEMBL1131904, “Peptidic immunosuppressants from the fungus Trichoderma polysporum” (Bioorg Med Chem Lett, 1999)
